One block for each compound: values may come before it. The source made the active and inactive calls. The rule behind the calls is not given here.
Assays:
[1] = Metabolic stability in human liver microsome assessed as half life measured upto 60 mins by LC-MS/MS analysis; format: ADME; settings: liver microsomes
[2] = Metabolic stability in mouse liver microsome assessed as half life measured upto 60 mins by LC-MS/MS analysis; format: ADME; settings: liver microsomes
TERT-RPE1 [3] = test: Induction of cell cycle arrest in human TERT-RPE1 cells assessed as accumulation of cells at G1 phase at 100 nM incubated for 72 hrs by annexin V-FITC and PI staining based flow cytometry analysis; format: functional
TERT-RPE1 [4] = test: Induction of cell cycle arrest in human TERT-RPE1 cells assessed as accumulation of cells at G1 phase at 1000 nM incubated for 72 hrs by annexin V-FITC and PI staining based flow cytometry analysis; format: functional
TERT-RPE1 [5] = test: Induction of cell cycle arrest in human TERT-RPE1 cells assessed as accumulation of cells at G1 phase at 2500 nM incubated for 72 hrs by annexin V-FITC and PI staining based flow cytometry analysis; format: functional
TERT-RPE1 [6] = test: Induction of cell cycle arrest in human TERT-RPE1 cells assessed as accumulation of cells at S phase at 100 nM incubated for 72 hrs by annexin V-FITC and PI staining based flow cytometry analysis; format: functional
TERT-RPE1 [7] = test: Induction of cell cycle arrest in human TERT-RPE1 cells assessed as accumulation of cells at S phase at 1000 nM incubated for 72 hrs by annexin V-FITC and PI staining based flow cytometry analysis; format: functional
TERT-RPE1 [8] = test: Induction of cell cycle arrest in human TERT-RPE1 cells assessed as accumulation of cells at S phase at 2500 nM incubated for 72 hrs by annexin V-FITC and PI staining based flow cytometry analysis; format: functional
TERT-RPE1 [9] = test: Induction of cell cycle arrest in human TERT-RPE1 cells assessed as accumulation of cells at G2/M phase at 100 nM incubated for 72 hrs by annexin V-FITC and PI staining based flow cytometry analysis; format: functional
TERT-RPE1 [10] = test: Induction of cell cycle arrest in human TERT-RPE1 cells assessed as accumulation of cells at G2/M phase at 1000 nM incubated for 72 hrs by annexin V-FITC and PI staining based flow cytometry analysis; format: functional
TERT-RPE1 [11] = test: Induction of cell cycle arrest in human TERT-RPE1 cells assessed as accumulation of cells at G2/M phase at 2500 nM incubated for 72 hrs by annexin V-FITC and PI staining based flow cytometry analysis; format: functional
HeLa [12] = test: Induction of cell cycle arrest in human HeLa cells assessed as accumulation of cells at G1 phase at 100 nM incubated for 72 hrs by annexin V-FITC and PI staining based flow cytometry analysis; format: functional
HeLa [13] = test: Induction of cell cycle arrest in human HeLa cells assessed as accumulation of cells at G1 phase at 1000 nM incubated for 72 hrs by annexin V-FITC and PI staining based flow cytometry analysis; format: functional
HeLa [14] = test: Induction of cell cycle arrest in human HeLa cells assessed as accumulation of cells at G1 phase at 2500 nM incubated for 72 hrs by annexin V-FITC and PI staining based flow cytometry analysis; format: functional
HeLa [15] = test: Induction of cell cycle arrest in human HeLa cells assessed as accumulation of cells at S phase at 100 nM incubated for 72 hrs by annexin V-FITC and PI staining based flow cytometry analysis; format: functional
HeLa [16] = test: Induction of cell cycle arrest in human HeLa cells assessed as accumulation of cells at S phase at 1000 nM incubated for 72 hrs by annexin V-FITC and PI staining based flow cytometry analysis; format: functional
HeLa [17] = test: Induction of cell cycle arrest in human HeLa cells assessed as accumulation of cells at S phase at 2500 nM incubated for 72 hrs by annexin V-FITC and PI staining based flow cytometry analysis; format: functional
HeLa [18] = test: Induction of cell cycle arrest in human HeLa cells assessed as accumulation of cells at G2/M phase at 100 nM incubated for 72 hrs by annexin V-FITC and PI staining based flow cytometry analysis; format: functional
HeLa [19] = test: Induction of cell cycle arrest in human HeLa cells assessed as accumulation of cells at G2/M phase at 1000 nM incubated for 72 hrs by annexin V-FITC and PI staining based flow cytometry analysis; format: functional
HeLa [20] = test: Induction of cell cycle arrest in human HeLa cells assessed as accumulation of cells at G2/M phase at 2500 nM incubated for 72 hrs by annexin V-FITC and PI staining based flow cytometry analysis; format: functional
AHH-1 [21] = test: Induction of cell cycle arrest in human AHH-1 cells assessed as accumulation of cells at G1 phase at 100 nM incubated for 72 hrs by annexin V-FITC and PI staining based flow cytometry analysis; format: functional
AHH-1 [22] = test: Induction of cell cycle arrest in human AHH-1 cells assessed as accumulation of cells at G1 phase at 1000 nM incubated for 72 hrs by annexin V-FITC and PI staining based flow cytometry analysis; format: functional
AHH-1 [23] = test: Induction of cell cycle arrest in human AHH-1 cells assessed as accumulation of cells at G1 phase at 2500 nM incubated for 72 hrs by annexin V-FITC and PI staining based flow cytometry analysis; format: functional
AHH-1 [24] = test: Induction of cell cycle arrest in human AHH-1 cells assessed as accumulation of cells at S phase at 100 nM incubated for 72 hrs by annexin V-FITC and PI staining based flow cytometry analysis; format: functional
AHH-1 [25] = test: Induction of cell cycle arrest in human AHH-1 cells assessed as accumulation of cells at S phase at 1000 nM incubated for 72 hrs by annexin V-FITC and PI staining based flow cytometry analysis; format: functional
AHH-1 [26] = test: Induction of cell cycle arrest in human AHH-1 cells assessed as accumulation of cells at S phase at 2500 nM incubated for 72 hrs by annexin V-FITC and PI staining based flow cytometry analysis; format: functional
AHH-1 [27] = test: Induction of cell cycle arrest in human AHH-1 cells assessed as accumulation of cells at G2/M phase at 100 nM incubated for 72 hrs by annexin V-FITC and PI staining based flow cytometry analysis; format: functional
AHH-1 [28] = test: Induction of cell cycle arrest in human AHH-1 cells assessed as accumulation of cells at G2/M phase at 1000 nM incubated for 72 hrs by annexin V-FITC and PI staining based flow cytometry analysis; format: functional
AHH-1 [29] = test: Induction of cell cycle arrest in human AHH-1 cells assessed as accumulation of cells at G2/M phase at 2500 nM incubated for 72 hrs by annexin V-FITC and PI staining based flow cytometry analysis; format: functional
HeLa [30] = test: Induction of cell cycle arrest in human HeLa cells assessed as accumulation of cells at sub-G1 phase incubated for 72 hrs by annexin V-FITC and PI staining based flow cytometry analysis; format: functional
AHH-1 [31] = test: Induction of cell cycle arrest in human AHH-1 cells assessed as accumulation of cells at sub-G1 phase incubated for 72 hrs by annexin V-FITC and PI staining based flow cytometry analysis; format: functional
AHH-1 [32] = test: Induction of apoptosis in human AHH-1 cells at 100 to 2500 nM measured after 72 hrs by annexin V-FITC and PI staining based flow cytometry analysis; format: functional, cell-based; settings: dose 100-2500 nM
Farage = test: Antiproliferative activity against human Farage cells assessed as inhibition of cell growth measured for 72 hrs by MTT assay; format: functional, cell-based
KARPAS-422 = test: Antiproliferative activity against human KARPAS-422 cells assessed as inhibition of cell growth measured for 72 hrs by MTT assay; format: functional, cell-based; settings: KARPAS-422, 72 h
TMD8 = test: Antiproliferative activity against human TMD8 cells assessed as inhibition of cell growth measured for 72 hrs by MTT assay; format: functional, cell-based; settings: TMD8, 72 h
U2932 = test: Antiproliferative activity against human U2932 cells assessed as inhibition of cell growth measured for 72 hrs by MTT assay; format: functional, cell-based; settings: U2932, 72 h
Z-138 = test: Antiproliferative activity against human Z138 cells assessed as inhibition of cell growth measured for 72 hrs by MTT assay; format: functional, cell-based; settings: Z-138, 72 h
Maver1 = test: Antiproliferative activity against human MAVER-1 cells assessed as inhibition of cell growth measured for 72 hrs by MTT assay; format: functional, cell-based; settings: Maver1, 72 h

half-life [1]: 47 min | half-life [2]: 11.8 min
Compound: CC(C)NCC(O)COc1cccc2ccccc12 (stereo not given) [PROPRANOLOL]

Compound: COc1ccc(/C=C\c2cc(OC)c(OC)c(OC)c2)cc1O [COMBRETASTATIN A4]
Activity (TERT-RPE1 [3]): 23% | Activity (TERT-RPE1 [4]): 17.1% | Activity (TERT-RPE1 [5]): 19% | Activity (TERT-RPE1 [6]): 9% | Activity (TERT-RPE1 [7]): 8.4% | Activity (TERT-RPE1 [8]): 5.4% | Activity (TERT-RPE1 [9]): 68% | Activity (TERT-RPE1 [10]): 74.6% | Activity (TERT-RPE1 [11]): 73% | Activity (HeLa [12]): 23.4% | Activity (HeLa [13]): 10.1% | Activity (HeLa [14]): 8.8% | Activity (HeLa [15]): 15.5% | Activity (HeLa [16]): 16.8% | Activity (HeLa [17]): 9.2% | Activity (HeLa [18]): 61.1% | Activity (HeLa [19]): 73.1% | Activity (HeLa [20]): 75.2% | Activity (AHH-1 [21]): 8.6% | Activity (AHH-1 [22]): 7.8% | Activity (AHH-1 [23]): 7% | Activity (AHH-1 [24]): 17% | Activity (AHH-1 [25]): 13.4% | Activity (AHH-1 [26]): 10.3% | Activity (AHH-1 [27]): 74.5% | Activity (AHH-1 [28]): 78.8% | Activity (AHH-1 [29]): 74.1% | Activity (HeLa [30]): Active | Activity (AHH-1 [31]): Active | Activity (AHH-1 [32]): Active | IC50 (Farage): 0.7 nM | IC50 (KARPAS-422): 0.58 nM | IC50 (TMD8): 0.66 nM | IC50 (U2932): 0.89 nM | IC50 (Z-138): 0.78 nM | IC50 (Maver1): 4.6 nM

half-life [1]: 8.3 min | half-life [2]: 3.3 min
Compound: CCOc1ccc2ccc(=O)oc2c1 [ETHOXYCOUMARIN]
